Source: the NIST ThermoML archive (doi:10.1016/j.jct.2014.05.005)
± gives the expanded uncertainty stated by the source.

How the values were obtained:
[1] = Molar enthalpy of transition or fusion; conditions: Crystal; DSC
[2] = for Normal melting temperature: Crystal, DTA; for mass density: 298.15 K, 101.33 kPa, Liquid, Vibrating tube method

For `Cn1c(=O)c2[nH]cnc2n(C)c1=O` [3,7-dihydro-1,3-dimethyl-1H-purine-2,6-dione], the “Molar enthalpy of transition or fusion” value [1] was 7.23 ± 0.158 kcal/mol and the Normal melting temperature [2] was 271.4 ± 0.4 °C.
With `Cn1c(=O)c2c(ncn2CCO)n(C)c1=O` [7-(2-hydroxyethyl)-1,3-dimethylxanthine] the “Molar enthalpy of transition or fusion” value [1] was 7.8 ± 0.17 kcal/mol and the Normal melting temperature [2] was 162.7 ± 0.4 °C.
Work on `CCO` [ethanol] yielded a mass density [2] of 785.12 ± 1 kg/m3.
For `CCCCCCCCO` [octan-1-ol], the mass density [2] was 822.99 ± 1 kg/m3.
